In PubChem BioAssay (NCI):
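Step 1: Grow cells in 96-well plates. Step 2: Expose to compound for 48 hours at 5 concentrations. Step 3: Interpolate endpoints linearly; if unreached, use highest concentration. Here, GI50 denotes the concentration required for 50% inhibition of growth. TGI: concentration producing complete growth inhibition.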

Experiments:
Assay in all cases: growth of human tumour cells (NCI), 48 h
786-0 renal = tested on: 786-0 renal
A498 renal = tested on: A498 renal
A549 NSCLC = tested on: A549 NSCLC
ACHN renal = tested on: ACHN renal
CAKI-1 renal = tested on: CAKI-1 renal
CCRF-CEM leukemia = tested on: CCRF-CEM leukemia
COLO 205 colon = tested on: COLO 205 colon
DU-145 prostate = tested on: DU-145 prostate
EKVX NSCLC = tested on: EKVX NSCLC
HCC-2998 colon = tested on: HCC-2998 colon
HCT-116 colon = tested on: HCT-116 colon
HCT-15 colon = tested on: HCT-15 colon
HL-60(TB) leukemia = tested on: HL-60(TB) leukemia
HOP-62 NSCLC = tested on: HOP-62 NSCLC
HOP-92 NSCLC = tested on: HOP-92 NSCLC
HS 578T breast = tested on: HS 578T breast
HT29 colon = tested on: HT29 colon
IGROV1 ovarian = tested on: IGROV1 ovarian
K-562 leukemia = tested on: K-562 leukemia
KM12 colon = tested on: KM12 colon
LOX IMVI melanoma = tested on: LOX IMVI melanoma
M14 melanoma = tested on: M14 melanoma
MALME-3M melanoma = tested on: MALME-3M melanoma
MDA-MB-231 breast = tested on: MDA-MB-231 breast
MDA-MB-435 = tested on: MDA-MB-435
MDA-N = tested on: MDA-N
MOLT-4 leukemia = tested on: MOLT-4 leukemia
NCI-H226 lung = tested on: NCI-H226 lung
NCI-H23 lung = tested on: NCI-H23 lung
NCI-H460 lung = tested on: NCI-H460 lung
NCI-H522 lung = tested on: NCI-H522 lung
NCI/ADR-RES ovarian = tested on: NCI/ADR-RES ovarian
OVCAR-3 ovarian = tested on: OVCAR-3 ovarian
OVCAR-4 ovarian = tested on: OVCAR-4 ovarian
OVCAR-5 ovarian = tested on: OVCAR-5 ovarian
OVCAR-8 ovarian = tested on: OVCAR-8 ovarian
PC-3 prostate = tested on: PC-3 prostate
RPMI-8226 leukemia = tested on: RPMI-8226 leukemia
RXF 393 renal = tested on: RXF 393 renal
SF-268 CNS = tested on: SF-268 CNS
SF-295 CNS = tested on: SF-295 CNS
SF-539 CNS = tested on: SF-539 CNS
SK-MEL-28 melanoma = tested on: SK-MEL-28 melanoma
SK-MEL-5 melanoma = tested on: SK-MEL-5 melanoma
SK-OV-3 ovarian = tested on: SK-OV-3 ovarian
SN12C renal = tested on: SN12C renal
SNB-19 CNS = tested on: SNB-19 CNS
SNB-75 CNS = tested on: SNB-75 CNS
SR leukemia = tested on: SR leukemia
SW-620 colon = tested on: SW-620 colon
TK-10 renal = tested on: TK-10 renal
U251 CNS = tested on: U251 CNS
UACC-257 melanoma = tested on: UACC-257 melanoma
UACC-62 melanoma = tested on: UACC-62 melanoma
UO-31 renal = tested on: UO-31 renal
BT-549 breast = tested on: BT-549 breast
MCF7 breast = tested on: MCF7 breast
SK-MEL-2 melanoma = tested on: SK-MEL-2 melanoma
T-47D breast = tested on: T-47D breast

For `O=c1c2cc([N+](=O)[O-])ccc2n2n1CCCCC2`, the TGI (786-0 renal) was > 100 µM, the TGI (A498 renal) was > 100 µM and the TGI (A549 NSCLC) was > 100 µM. The TGI (ACHN renal) was > 100 µM, the TGI (CAKI-1 renal) was > 100 µM and the TGI (CCRF-CEM leukemia) was > 100 µM. For the same molecule, the TGI (COLO 205 colon) was > 100 µM, the TGI (DU-145 prostate) was > 100 µM and the TGI (EKVX NSCLC) was > 100 µM. The TGI (HCC-2998 colon) was > 100 µM, the TGI (HCT-116 colon) was > 100 µM and the TGI (HCT-15 colon) was > 100 µM. For the same molecule, the TGI (HL-60(TB) leukemia) was > 100 µM, the TGI (HOP-62 NSCLC) was > 100 µM and the TGI (HOP-92 NSCLC) was > 100 µM. The TGI (HS 578T breast) was > 100 µM, the TGI (HT29 colon) was > 100 µM and the TGI (IGROV1 ovarian) was > 100 µM. The TGI (K-562 leukemia) was > 100 µM, the TGI (KM12 colon) was > 100 µM and the TGI (LOX IMVI melanoma) was > 100 µM. The TGI (M14 melanoma) was > 100 µM, the TGI (MALME-3M melanoma) was > 100 µM and the TGI (MDA-MB-231 breast) was > 100 µM. The TGI (MDA-MB-435) was > 100 µM, the TGI (MDA-N) was > 100 µM and the TGI (MOLT-4 leukemia) was > 100 µM. The TGI (NCI-H226 lung) was > 100 µM, the TGI (NCI-H23 lung) was > 100 µM and the TGI (NCI-H460 lung) was > 100 µM. For the same molecule, the TGI (NCI-H522 lung) was > 100 µM, the TGI (NCI/ADR-RES ovarian) was > 100 µM and the TGI (OVCAR-3 ovarian) was > 100 µM. For the same molecule, the TGI (OVCAR-4 ovarian) was > 100 µM, the TGI (OVCAR-5 ovarian) was > 100 µM and the TGI (OVCAR-8 ovarian) was > 100 µM. For the same molecule, the TGI (PC-3 prostate) was > 100 µM, the TGI (RPMI-8226 leukemia) was > 100 µM and the TGI (RXF 393 renal) was > 100 µM. The TGI (SF-268 CNS) was > 100 µM, the TGI (SF-295 CNS) was > 100 µM and the TGI (SF-539 CNS) was > 100 µM. The TGI (SK-MEL-28 melanoma) was > 100 µM, the TGI (SK-MEL-5 melanoma) was > 100 µM and the TGI (SK-OV-3 ovarian) was > 100 µM. The TGI (SN12C renal) was > 100 µM, the TGI (SNB-19 CNS) was > 100 µM and the TGI (SNB-75 CNS) was > 100 µM. The TGI (SR leukemia) was > 100 µM, the TGI (SW-620 colon) was > 100 µM and the TGI (TK-10 renal) was > 100 µM. For the same molecule, the TGI (U251 CNS) was > 100 µM, the TGI (UACC-257 melanoma) was > 100 µM and the TGI (UACC-62 melanoma) was > 100 µM. The TGI (UO-31 renal) was > 100 µM.
`O=C(CN1CCN(C(=O)c2ccco2)CC1)Nc1ccc(Cl)cc1C(=O)c1ccccc1Cl` showed a GI50 (786-0 renal) of 13.6 µM, a TGI (786-0 renal) of 42.5 µM and a GI50 (A498 renal) of 6.8 µM. For the same molecule, the TGI (A498 renal) was 22.9 µM, the GI50 (A549 NSCLC) was 5.61 µM and the TGI (A549 NSCLC) was 39.4 µM. For the same molecule, the GI50 (ACHN renal) was 10.3 µM, the TGI (ACHN renal) was 43.7 µM and the GI50 (BT-549 breast) was 2.62 µM. For the same molecule, the TGI (BT-549 breast) was 13.1 µM, the GI50 (CAKI-1 renal) was 0.0273 µM and the TGI (CAKI-1 renal) was 6.42 µM. The GI50 (CCRF-CEM leukemia) was 5.28 µM, the TGI (CCRF-CEM leukemia) was > 100 µM and the GI50 (COLO 205 colon) was 7.32 µM. For the same molecule, the TGI (COLO 205 colon) was 23.7 µM, the GI50 (DU-145 prostate) was 15.5 µM and the TGI (DU-145 prostate) was 35.2 µM. The GI50 (EKVX NSCLC) was 5.53 µM, the TGI (EKVX NSCLC) was 30 µM and the GI50 (HCC-2998 colon) was 14.8 µM. The TGI (HCC-2998 colon) was 29.4 µM, the GI50 (HCT-116 colon) was 13 µM and the TGI (HCT-116 colon) was 26.9 µM. The GI50 (HCT-15 colon) was 5.14 µM, the TGI (HCT-15 colon) was 39.7 µM and the GI50 (HL-60(TB) leukemia) was 1.31 µM. For the same molecule, the TGI (HL-60(TB) leukemia) was 2.95 µM, the GI50 (HOP-62 NSCLC) was 16.9 µM and the TGI (HOP-62 NSCLC) was 35.6 µM. For the same molecule, the GI50 (HOP-92 NSCLC) was 4.45 µM, the TGI (HOP-92 NSCLC) was 24.1 µM and the GI50 (HS 578T breast) was 10.8 µM. The TGI (HS 578T breast) was 33 µM, the GI50 (HT29 colon) was 6.23 µM and the TGI (HT29 colon) was 22.3 µM. The GI50 (IGROV1 ovarian) was 4.23 µM, the TGI (IGROV1 ovarian) was 17.6 µM and the GI50 (K-562 leukemia) was 0.691 µM. For the same molecule, the TGI (K-562 leukemia) was 10.5 µM, the GI50 (KM12 colon) was 7.33 µM and the TGI (KM12 colon) was 20.9 µM. For the same molecule, the GI50 (LOX IMVI melanoma) was 11.1 µM, the TGI (LOX IMVI melanoma) was 23.1 µM and the GI50 (M14 melanoma) was 12.5 µM. For the same molecule, the TGI (M14 melanoma) was 28.1 µM, the GI50 (MALME-3M melanoma) was 7 µM and the TGI (MALME-3M melanoma) was 22.2 µM. The GI50 (MCF7 breast) was 5.31 µM, the TGI (MCF7 breast) was 21.7 µM and the GI50 (MDA-MB-231 breast) was 9.51 µM. The TGI (MDA-MB-231 breast) was 46.1 µM, the GI50 (MDA-MB-435) was 5.83 µM and the TGI (MDA-MB-435) was 20.6 µM. It also gave a GI50 (MOLT-4 leukemia) of 2.14 µM, a TGI (MOLT-4 leukemia) of 5.44 µM and a GI50 (NCI-H226 lung) of 13.3 µM. The TGI (NCI-H226 lung) was 44.8 µM, the GI50 (NCI-H23 lung) was 10.4 µM and the TGI (NCI-H23 lung) was 62.2 µM. For the same molecule, the GI50 (NCI-H460 lung) was 13.9 µM, the TGI (NCI-H460 lung) was 29 µM and the GI50 (NCI-H522 lung) was 4.16 µM. The TGI (NCI-H522 lung) was 27.4 µM, the GI50 (NCI/ADR-RES ovarian) was 10 µM and the TGI (NCI/ADR-RES ovarian) was 43.8 µM. It also gave a GI50 (OVCAR-3 ovarian) of 5.53 µM, a TGI (OVCAR-3 ovarian) of 17.5 µM and a GI50 (OVCAR-4 ovarian) of 5.91 µM. The TGI (OVCAR-4 ovarian) was 31.5 µM, the GI50 (OVCAR-5 ovarian) was 24 µM and the TGI (OVCAR-5 ovarian) was 63 µM. It also gave a GI50 (OVCAR-8 ovarian) of 11.5 µM, a TGI (OVCAR-8 ovarian) of 53.8 µM and a GI50 (PC-3 prostate) of 2.75 µM. The TGI (PC-3 prostate) was 16.3 µM, the GI50 (RPMI-8226 leukemia) was 1.33 µM and the TGI (RPMI-8226 leukemia) was 12.1 µM. It also gave a GI50 (RXF 393 renal) of 3.85 µM, a TGI (RXF 393 renal) of 18 µM and a GI50 (SF-268 CNS) of 14.7 µM. It also gave a TGI (SF-268 CNS) of 43.1 µM, a GI50 (SF-295 CNS) of 3.13 µM and a TGI (SF-295 CNS) of 15.4 µM. For the same molecule, the GI50 (SF-539 CNS) was 13.6 µM, the TGI (SF-539 CNS) was 26.9 µM and the GI50 (SK-MEL-2 melanoma) was 3.14 µM. The TGI (SK-MEL-2 melanoma) was 17.5 µM, the GI50 (SK-MEL-28 melanoma) was 11.6 µM and the TGI (SK-MEL-28 melanoma) was 23.9 µM. It also gave a GI50 (SK-MEL-5 melanoma) of 5.34 µM, a TGI (SK-MEL-5 melanoma) of 18.6 µM and a GI50 (SK-OV-3 ovarian) of 16.1 µM. For the same molecule, the TGI (SK-OV-3 ovarian) was 76.7 µM, the GI50 (SN12C renal) was 14.6 µM and the TGI (SN12C renal) was 44.7 µM. It also gave a GI50 (SNB-19 CNS) of 12.1 µM, a TGI (SNB-19 CNS) of 94.7 µM and a GI50 (SNB-75 CNS) of 2.73 µM. The TGI (SNB-75 CNS) was 28.3 µM, the GI50 (SR leukemia) was 0.896 µM and the TGI (SR leukemia) was 2.76 µM. It also gave a GI50 (SW-620 colon) of 12 µM, a TGI (SW-620 colon) of 30.6 µM and a GI50 (T-47D breast) of 2.32 µM. For the same molecule, the TGI (T-47D breast) was 15.4 µM, the GI50 (TK-10 renal) was 10.2 µM and the TGI (TK-10 renal) was 36.2 µM. The GI50 (U251 CNS) was 8 µM, the TGI (U251 CNS) was 23.6 µM and the GI50 (UACC-257 melanoma) was 12.5 µM. For the same molecule, the TGI (UACC-257 melanoma) was 31.8 µM, the GI50 (UACC-62 melanoma) was 8.85 µM and the TGI (UACC-62 melanoma) was 23.4 µM. It also gave a GI50 (UO-31 renal) of 2.28 µM and a TGI (UO-31 renal) of 14.9 µM.
